Experimental findings from US20250280861A1, “SWEETENER COMPOSITIONS” (Firmenich Incorporated, priority 2022, published 2025) are described below.

One test deals with T1, hT1R2/T1R3 taste receptor (Homo sapiens, UniProt Q7RTX0+Q8TE23).
T1 sequence (Q8TE23 20-839): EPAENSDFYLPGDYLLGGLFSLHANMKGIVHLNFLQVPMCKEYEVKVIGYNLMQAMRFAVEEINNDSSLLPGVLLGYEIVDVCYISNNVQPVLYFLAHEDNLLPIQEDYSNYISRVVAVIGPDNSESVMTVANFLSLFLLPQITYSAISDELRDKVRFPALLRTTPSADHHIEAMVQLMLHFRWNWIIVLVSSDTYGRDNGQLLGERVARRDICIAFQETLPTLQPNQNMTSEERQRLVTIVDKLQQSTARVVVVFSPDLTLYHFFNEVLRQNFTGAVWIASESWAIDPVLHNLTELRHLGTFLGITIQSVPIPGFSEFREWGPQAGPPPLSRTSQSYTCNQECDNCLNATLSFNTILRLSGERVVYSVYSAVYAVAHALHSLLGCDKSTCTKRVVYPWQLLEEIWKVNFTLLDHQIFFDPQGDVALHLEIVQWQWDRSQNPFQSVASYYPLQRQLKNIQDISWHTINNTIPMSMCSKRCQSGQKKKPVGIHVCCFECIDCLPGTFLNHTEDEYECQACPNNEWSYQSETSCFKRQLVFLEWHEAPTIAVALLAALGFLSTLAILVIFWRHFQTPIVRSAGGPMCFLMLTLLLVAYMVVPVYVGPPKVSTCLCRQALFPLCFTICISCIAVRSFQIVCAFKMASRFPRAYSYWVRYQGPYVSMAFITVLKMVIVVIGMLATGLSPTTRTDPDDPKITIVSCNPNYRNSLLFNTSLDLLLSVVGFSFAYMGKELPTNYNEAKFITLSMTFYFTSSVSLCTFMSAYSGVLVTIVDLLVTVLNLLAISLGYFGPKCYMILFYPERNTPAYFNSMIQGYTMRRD
T1 sequence (Q7RTX0 21-852): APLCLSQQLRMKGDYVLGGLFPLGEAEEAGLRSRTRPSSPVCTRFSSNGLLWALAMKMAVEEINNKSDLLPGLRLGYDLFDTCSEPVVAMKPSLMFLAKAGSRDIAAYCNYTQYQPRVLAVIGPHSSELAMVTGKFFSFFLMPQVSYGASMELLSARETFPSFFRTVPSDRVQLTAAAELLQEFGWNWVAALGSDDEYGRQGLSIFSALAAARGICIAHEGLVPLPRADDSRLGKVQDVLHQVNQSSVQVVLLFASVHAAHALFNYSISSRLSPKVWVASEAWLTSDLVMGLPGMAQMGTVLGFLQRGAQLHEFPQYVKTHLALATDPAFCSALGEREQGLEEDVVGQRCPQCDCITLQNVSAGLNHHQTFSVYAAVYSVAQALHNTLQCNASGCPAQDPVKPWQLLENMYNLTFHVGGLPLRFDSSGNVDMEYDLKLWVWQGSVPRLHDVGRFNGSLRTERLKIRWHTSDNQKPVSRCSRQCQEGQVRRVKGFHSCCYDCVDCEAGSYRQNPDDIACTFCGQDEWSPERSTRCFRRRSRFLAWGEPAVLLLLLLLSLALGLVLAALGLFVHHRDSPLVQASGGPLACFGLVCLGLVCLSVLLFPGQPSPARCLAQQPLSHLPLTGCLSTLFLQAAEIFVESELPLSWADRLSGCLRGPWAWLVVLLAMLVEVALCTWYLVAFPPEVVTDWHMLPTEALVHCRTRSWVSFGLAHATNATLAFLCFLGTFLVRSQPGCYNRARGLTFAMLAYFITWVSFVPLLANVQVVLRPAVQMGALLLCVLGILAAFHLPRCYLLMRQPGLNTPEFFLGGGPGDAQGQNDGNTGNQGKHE
Kind of test: agonist activity against the hT1R2/T1R3 taste receptor (sweet receptor based assay). Type of test: cell-based.
Conditions: not given
As to the method: Compounds described in this application show moderate to potent agonist effect on the sweet receptor based assay. Potencies (EC50 values, e.g. see Tables 1-3) for agonist activity were measured against the hT1R2/T1R3 taste receptor. FIG. 1 exemplifies the data generated during the screening to determine EC50 values.
With `CC(C)CNC(=O)C(C)(C)N1CCC(C#N)(c2ccccc2)CC1` [Compound 124], it took 2.2 µM to reach a half-maximal effect (EC50). Take `COCC(C(=O)NCC(C)C)N1CCC(C#N)(c2cccc(F)c2F)CC1` (stereo not drawn) [Compound 129]: the concentration giving a half-maximal response (EC50) (as a rule, the concentration giving half of the maximal effect) worked out at 4.3 µM. For `COCCNC(=O)C(C)(C)N1CCC(C#N)(c2cccc(F)c2F)CC1` [Compound 125], the EC50 was over 10 µM.

Staying with this test, now noted: agonist activity, hT1R2/T1R3; read-out: Sweet EC50.
Regarding `Cc1cccc(N2CCN(C(C)(C)C(=O)NC(C)(C)CO)CC2)c1C` [Compound 24], the EC50 was over 10 µM.

`COCC(C(=O)NCC(C)C)N1CCC(c2ccccc2)CC1` (stereo not drawn) [Compound 113]: the EC50 came to 4.4 µM. Turning to `CC(C)CNC(=O)C(C)(C)N1CCN(c2ccccc2F)CC1` [Compound 2, 2-(4-(2-fluorophenyl)piperazin-1-yl)-N-isobutyl-2-methylpropanamide], the EC50 was determined as 6.8 µM. As for `Cc1cccc(N2CCN(C(C)C(=O)NC3CC3)CC2)c1C` (stereo not drawn) [Compound 32], the EC50 was over 10 µM. With `COC(=O)c1ccccc1N1CCN(C(C)(C)C(=O)NCC(C)C)CC1` [Compound 49], the EC50 was over 10 µM. On to `CC(C)CNC(=O)C(C)(C)N1CCC(c2cccc(C(=O)N(C)C)c2)CC1` [Compound 106], for which the EC50 was over 10 µM. On to `CC(C)CNC(=O)C(C)(C)N1CCC(c2cccc(CN(C)C)c2)CC1` [Compound 103], for which the EC50 was over 10 µM.

Regarding `CC(C)CNC(=O)C(C)(C)N1CCN(c2cc(F)ccc2F)CC1` [Compound 39], the EC50 was over 10 µM.

For the compound `COCc1c(F)cccc1N1CCN(C(C)(C)C(=O)NCC(C)C)CC1` [Compound 5, 2-(4-(3-fluoro-2-(methoxymethyl)phenyl)piperazin-1-yl)-N-isobutyl-2-methylpropanamide], the concentration for a half-maximal effect (EC50) was 2.1 µM. As for `CC(C)(C(=O)NC1CC1)N1CCC(c2ccccc2)CC1` [Compound 82], the EC50 was 10.4 µM. As for `COCc1cccc(C2=CCN(C(C)(C)C(=O)NCC(C)C)CC2)c1` [Compound 63], the EC50 is over 10 µM.

Consider `CC(C)CNC(=O)C(C)(C)N1CC=C(c2ccccc2F)CC1` [Compound 57], for which the EC50 turned out to be 1.6 µM. Turning to `CC(C)CNC(=O)C1(N2CCC(c3ccccc3)CC2)COC1` [Compound 112], the EC50 is 4.8 µM. `Cc1cccc(N2CCN(CC(=O)NCC(C)C)CC2)c1C` [Compound 12]: the EC50 worked out at 9.7 µM.

Regarding `Cc1cccc(N2CCN(C(C)(C)C(=O)NC3CC3)CC2)c1C` [Compound 1, N-cyclopropyl-2-(4-(2,3-dimethylphenyl)piperazin-1-yl)-2-methylpropanamide], the EC50 is 4.3 µM.

In the case of `CC(C)CNC(=O)C(C)(C)N1CCC(c2ccc(F)cc2)CC1` [Compound 97], the 50% effective concentration (EC50) turned out to be 6.2 µM. As for `COCc1cccc(N2CCN(C(C)(C)C(=O)NCC(C)C)CC2)c1` [Compound 45], the concentration for a half-maximal effect (EC50) is over 10 µM. For the compound `CC(C)CNC(=O)C(C)(C)N1CC=C(c2cccc(F)c2)CC1` [Compound 62], the EC50 is 3 µM. Consider `CC(C)CNC(=O)C(C)N1CCC(c2ccccc2)CC1` (stereo not drawn) [Compound 90], for which the EC50 amounted to 4.7 µM. For the compound `CC(C)CNC(=O)C(C)(C)N1CCN(c2ccccc2C#N)CC1` [Compound 48], the EC50 is over 10 µM. As for `CC(C)[C@@H](C)NC(=O)C(C)(C)N1CCC(c2ccccc2)CC1` [Compound 86], the EC50 came to 4.4 µM.

Consider `Cc1cccc(N2CCN(C(C)(C)C(=O)NCC(C)C)CC2)c1` [Compound 43], for which the EC50 is over 10 µM.

Take `COc1ccccc1N1CCN(C(C)(C)C(=O)NCC(C)C)CC1` [Compound 52]: the concentration giving a half-maximal response (EC50) was over 10 µM.

As for `Cc1cccc(N2CCN(C(C)(C)C(=O)NCCN(C)C)CC2)c1C` [Compound 23], the EC50 is over 10 µM. On the same count and under the same terms, the value for `Cc1cccc(N2CCN(C(C)C(=O)NCC(C)C)CC2)c1C` (stereo not drawn) [Compound 29] was 1.4 µM; that for `CC(C)CNC(=O)C(C)(C)N1CCC(c2cccc(F)c2F)CC1` [Compound 94] was 0.14 µM. As for `Cc1cccc(N2CCN(C(C)(C)C(=O)NCC3CCCCCC3)CC2)c1C` [Compound 17], the EC50 is over 10 µM. In the case of `CCCNC(=O)C(C)(C)N1CCC(c2ccccc2)CC1` [Compound 85], the EC50 was determined as 5.5 µM. Same read-out and setting: the value for `CC(C)CNC(=O)C(C)(C)N1CCN(c2cccc(CO)c2F)CC1` [Compound 35] was over 10 µM. In the case of `CC(C)CNC(=O)C(C)(C)N1CCN(c2ccccc2CO)CC1` [Compound 6], the EC50 is over 10 µM. With `COCc1cccc(C2CCN(C(C)(C)C(=O)NCC(C)C)CC2)c1` [Compound 111], the half-maximal effective concentration (EC50) turned out to be 3.1 µM. For `CC(C)CNC(=O)C(C)(C)N1CC=C(c2ccccc2)CC1` [Compound 56], the EC50 amounted to 3.3 µM. On to `Cc1ccccc1C1=CCN(C(C)(C)C(=O)NCC(C)C)CC1` [Compound 58], for which the EC50 is 5.4 µM. As to `CC(C)CNC(=O)C(C)(C)N1CCN(c2cccc(F)c2)CC1` [Compound 44], the EC50 is over 10 µM. Still for that read-out and setting: the value for `Cc1ncccc1C1CCN(C(C)(C)C(=O)NCC(C)C)CC1` [Compound 108] was over 10 µM; that for `Cc1ccccc1C1CCN(C(C)(C)C(=O)NCC(C)C)CC1` [Compound 92] was 1.6 µM; that for `Cc1ccncc1C1CCN(C(C)(C)C(=O)NCC(C)C)CC1` [Compound 107] was over 10 µM. As for `CCCNC(=O)C(C)(C)N1CCN(c2cccc(C)c2C)CC1` [Compound 9], the EC50 is 4.2 µM. `Cc1ccncc1C1=CCN(C(C)(C)C(=O)NCC(C)C)CC1` [Compound 75]: the EC50 was over 10 µM. For `CC(C)CNC(=O)CN1CCC(c2ccccc2)CC1` [Compound 89], the EC50 was 6.7 µM. Regarding `COc1cccc(C2=CCN(C(C)(C)C(=O)NCC(C)C)CC2)c1F` [Compound 68], the EC50 was over 10 µM. Regarding `CC(C)CNC(=O)C(C)(C)N1CCC(C)(c2ccccc2)CC1` [Compound 118], the half-maximal effective concentration (EC50) came to 3.7 µM. Regarding `COCc1c(F)cccc1C1=CCN(C(C)(C)C(=O)NCC(C)C)CC1` [Compound 61], the EC50 amounted to 6.5 µM.

Take `Cc1cccc(C2=CCN(C(C)(C)C(=O)NCC(C)C)CC2)c1F` [Compound 65]: the EC50 came to 2.9 µM.

Consider `COCC(C(=O)NCC(C)C)N1CCC(c2cccc(F)c2F)CC1` (stereo not drawn) [Compound 114], for which the EC50 was found to be 0.4 µM. As for `CC(C)(C(=O)NC1CC1)N1CCN(c2cccc(F)c2F)CC1` [Compound 33], the EC50 was 3.9 µM. Same read-out and setting: in the case of `CC(C)CNC(=O)C(C)(C)N1CC=C(c2cccc(CN(C)C)c2)CC1` [Compound 71] it was over 10 µM; in that of `Cc1cccc(N2CCN(C(C)(C)C(=O)NCCc3ccccc3)CC2)c1C` [Compound 27], over 10 µM; in that of `CCC(CC)NC(=O)C(C)(C)N1CCN(c2cccc(C)c2C)CC1` [Compound 20], 5.6 µM. On to `Cc1cccc(N2CCN(C(C)C(=O)NCC(C)C)CC2)c1C` (stereo not drawn) [Compound 11], for which the EC50 came to 1.4 µM. As for `COCc1ccccc1C1=CCN(C(C)(C)C(=O)NCC(C)C)CC1` [Compound 64], the EC50 is over 10 µM. Still for that read-out and setting: in the case of `CC(C)CNC(=O)C(C)(C)N1CC=C(c2cncc(C#N)c2)CC1` [Compound 70] it was over 10 µM. Still for that read-out and setting: in the case of `CC(C)CNC(=O)C(C)(C)N1CCC(c2ccccc2N(C)C)CC1` [Compound 101] it was over 10 µM. Take `CC(C)CNC(=O)C(C)(C)N1CC=C(c2ccccc2N(C)C)CC1` [Compound 67]: the EC50 is over 10 µM. As to `Cc1cccc(N2CCN(C(C)(C)C(=O)NCC(C)C)CC2)c1F` [Compound 36], the half-maximal effective concentration (EC50) came to 2.4 µM. Consider `CC(C)CNC(=O)C(C)(C)N1CCC2(CC1)COc1ccccc12` [Compound 122], for which the concentration for a half-maximal effect (EC50) is 2.5 µM. For the compound `CC(C)CNC(=O)C(C)(C)N1CCc2ccccc2C1` [Compound 116], the EC50 was 3.8 µM.
